Here are results for 32 compounds from patent publication US10927105B1 (Lundbeck La Jolla Research Center, Inc., priority 2017, dated 2021).

The assay deals with MAGL (Homo sapiens (Human), UniProt Q99685). Briefly: In vitro competitive activity-based protein profiling (human prefrontal cortex membrane fractions, FP-Rh probe), MAGL band. As to conditions: read-out: MAGL IC50 (μM) (human); human prefrontal cortex membrane fractions.
Chain of MAGL (Q99685 whole entry): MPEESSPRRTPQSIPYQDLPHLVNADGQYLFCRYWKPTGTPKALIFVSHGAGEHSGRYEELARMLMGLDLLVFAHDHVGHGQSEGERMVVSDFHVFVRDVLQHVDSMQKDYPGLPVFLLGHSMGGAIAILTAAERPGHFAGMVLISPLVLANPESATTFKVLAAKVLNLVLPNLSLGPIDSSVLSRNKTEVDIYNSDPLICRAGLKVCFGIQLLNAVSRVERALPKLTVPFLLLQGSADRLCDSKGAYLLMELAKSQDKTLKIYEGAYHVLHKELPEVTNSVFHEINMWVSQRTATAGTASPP

As usually defined, the IC50 is the midpoint of a concentration-inhibition curve. `O=C(O)c1nn(C(=O)N2CCN(Cc3ccc(N4CCCC4)cc3C(F)(F)F)CC2)cc1Cl` [Example 368, 4-chloro-1-(4-(4-(pyrrolidin-1-yl)-2-(trifluoromethyl)-benzyl)piperazine-1-carbonyl)-1H-pyrazole-3-carboxylic acid]: the IC50 was below 0.1 µM.
Turning to `Cc1cn(C(=O)N2C[C@H]3C[C@H](OCc4cccc(C(F)(F)F)c4)C[C@H]3C2)nc1C(=O)O` [Example 290, 4-methyl-1-(trans-5-((3-(trifluoromethyl)-benzyl)oxy)-octahydrocyclopenta-[c]pyrrole-2-carbonyl)-1H-pyrazole-3-carboxylic acid], the IC50 was below 0.1 µM.
As for `O=C(O)c1ccn(C(=O)N2CCC(OCc3cc(Cl)cc(C(F)(F)F)c3)CC2)n1` [Example 275, 1-(4-((3-chloro-5-(trifluoromethyl)-benzyl)oxy)-piperidine-1-carbonyl)-1H-pyrazole-3-carboxylic acid], the figure is below 0.1 µM.
For `O=C(O)c1ccn(C(=O)N2CCN(Cc3ccc(C(F)(F)F)cc3N3CCCC3)CC2)n1` [Example 83, 1-(4-(2-(pyrrolidin-1-yl)-4-(trifluoromethyl)-benzyl)-piperazine-1-carbonyl)-1H-pyrazole-3-carboxylic acid] the value was below 0.1 µM.
For `O=C(O)c1ccn(C(=O)N2C[C@H]3C[C@H](Oc4cccc(C5CCCC5)c4)C[C@H]3C2)n1` [Example 232, 1-(trans-5-(3-cyclopentyl-phenoxy)-octahydrocyclopenta-[c]pyrrole-2-carbonyl)-1H-pyrazole-3-carboxylic acid] the value was below 0.1 µM; for `CC(C)c1ccccc1O[C@H]1C[C@@H]2CN(C(=O)n3ccc(C(=O)O)n3)C[C@@H]2C1` [Example 221, 1-(trans-5-(2-isopropylphenoxy)-octahydrocyclopenta-[c]pyrrole-2-carbonyl)-1H-pyrazole-3-carboxylic acid], below 0.1 µM; for `O=C(O)c1nn(C(=O)N2C[C@H]3C[C@H](OCc4cccc(C(F)(F)F)c4)C[C@H]3C2)cc1Cl` [Example 314, 4-chloro-1-(trans-5-((3-(trifluoromethyl)-benzyl)oxy)-octahydrocyclopenta-[c]pyrrole-2-carbonyl)-1H-pyrazole-3-carboxylic acid], below 0.1 µM.
As to `CN(Cc1cc(Cl)ccc1C(F)(F)F)C1CCN(C(=O)n2cc(Cl)c(C(=O)O)n2)CC1` [Example 112, 4-chloro-1-(4-((5-chloro-2-(trifluoromethyl)-benzyl)-(methyl)amino)-piperidine-1-carbonyl)-1H-pyrazole-3-carboxylic acid], the IC50 was below 0.1 µM.
As for `O=C(O)c1nn(C(=O)N2CCN(Cc3cc(F)cc(Oc4ccc(Cl)cc4)c3)CC2)cc1Cl` [Example 378, 4-chloro-1-(4-(3-(4-chlorophenoxy)-5-fluorobenzyl)-piperazine-1-carbonyl)-1H-pyrazole-3-carboxylic acid], the figure is below 0.1 µM; as for `O=C(O)c1ccn(C(=O)N2CCN(Cc3cc(F)cc(Oc4ccccc4Cl)c3)CC2)n1` [Example 319, 1-(4-(3-(2-chlorophenoxy)-5-fluorobenzyl)-piperazine-1-carbonyl)-1H-pyrazole-3-carboxylic acid], below 0.1 µM; as for `Cc1c(CO[C@H]2C[C@@H]3CN(C(=O)n4ccc(C(=O)O)n4)C[C@@H]3C2)cccc1C(F)(F)F` [Example 159, 1-(trans-5-((2-methyl-3-(trifluoromethyl)-benzyl)oxy)-octahydrocyclo-penta-nl [c]pyrrole-2-carbonyl)-1H-pyrazole-3-carboxylic acid], below 0.1 µM.
As for `C[C@H]1CN(Cc2cccc(Oc3ccc(Cl)cc3)c2)CCN1C(=O)n1ccc(C(=O)O)n1` [Example 311, (S)-1-(4-(3-(4-chlorophenoxy)-benzyl)-2-methylpiperazine-1-carbonyl)-1H-pyrazole-3-carboxylic acid], the figure is below 0.1 µM.
Consider `CN(Cc1cc(C(F)(F)F)ccc1N1CCCC1)C1(C)CCN(C(=O)n2ccc(C(=O)O)n2)CC1` [Example 384, 1-(4-methyl-4-(methyl(2-(pyrrolidin-1-yl)-5-(trifluoromethyl)-benzyl)amino)-piperidine-1-carbonyl)-1H-pyrazole-3-carboxylic acid], for which the IC50 was below 0.1 µM.
As for `C[C@@H]1CC[C@@H](C)N1c1cc(C(F)(F)F)ccc1CN1CCN(C(=O)n2ccc(C(=O)O)n2)CC1` [Example 359, 1-(4-(2-((2R,5R)-2,5-dimethylpyrrolidin-1-yl)-4-(trifluoromethyl)-benzyl)piperazine-1-carbonyl)-1H-pyrazole-3-carboxylic acid], the figure is below 0.1 µM; as for `Cc1cn(C(=O)N2CCC(C)(N(C)Cc3ccc(C(F)(F)F)cc3N3CCCC3)CC2)nc1C(=O)O` [Example 398], below 0.1 µM; as for `O=C(O)c1ccn(C(=O)N2CCN(Cc3cccc(Oc4cccc(C(F)(F)F)n4)c3)CC2)n1` [Example 353, 1-(4-(3-((6-(trifluoromethyl)-pyridin-2-yl)oxy)benzyl)-piperazine-1-carbonyl)-1H-pyrazole-3-carboxylic acid], below 0.1 µM.
As to `C[C@@H]1C[C@@H](N(C)Cc2cccc(C(F)(F)F)c2)CCN1C(=O)n1ccc(C(N)=O)n1` [Example 260, 1-((2R,4S)-2-methyl-4-(methyl(3-(trifluoromethyl)-benzyl)amino)-piperidine-1-carbonyl)-1H-pyrazole-3-carboxamide], the IC50 is below 0.1 µM.
For `O=C(O)c1ccn(C(=O)N2CCN(Cc3ccc(C(F)(F)F)cc3N3CC[C@@H](O)C3)CC2)n1` [Example 333, (R)-1-(4-(2-(3-hydroxypyrrolidin-1-yl)-4-(trifluoromethyl)-benzyl)-piperazine-1-carbonyl)-1H-pyrazole-3-carboxylic acid] the value was below 0.1 µM; for `O=C(O)c1ccn(C(=O)N2CCN(Cc3cccc(Oc4ccc(Cl)cc4)c3)CC2)n1` [Example 98, 1-(4-(3-(4-chlorophenoxy)-benzyl)-piperazine-1-carbonyl)-1H-pyrazole-3-carboxylic acid], below 0.1 µM; for `O=C(O)c1ccn(C(=O)N2CCN(Cc3cccc(Oc4ccc(F)cc4)c3)CC2)n1` [Example 51, 1-(4-(3-(4-fluorophenoxy)-benzyl)piperazine-1-carbonyl)-1H-pyrazole-3-carboxylic acid], below 0.1 µM.
For `Cc1cn(C(=O)N2CCN(Cc3cc(F)cc(Oc4ccc(Cl)cc4)c3)CC2)nc1C(=O)O` [Example 346, 1-(4-(3-(4-chlorophenoxy)-5-fluorobenzyl)-piperazine-1-carbonyl)-4-methyl-1H-pyrazole-3-carboxylic acid] the value was below 0.1 µM; for `CN(Cc1cccc(C(F)(F)F)c1)C1(C)CCN(C(=O)n2ccc(C(N)=O)n2)CC1` [Example 258], below 0.1 µM; for `O=C(O)c1nn(C(=O)N2CC3CN(Cc4cc(Cl)ccc4Cl)CC3C2)cc1Cl` (centres unmarked) [Example 136, 4-chloro-1-(5-(2,5-dichlorobenzyl)-octahydropyrrolo-[3,4-c]pyrrole-2-carbonyl)-1H-pyrazole-3-carboxylic acid], below 0.1 µM.
As for `O=C(O)c1ccn(C(=O)N2CCC3(CCN(Cc4cccc(-c5ccccc5)c4Cl)C3)CC2)n1` [Example 358, 1-(2-((2-chloro-[1,1′-biphenyl]-3-yl)methyl)-2,8-diazaspiro[4.5]-decane-8-carbonyl)-1H-pyrazole-3-carboxylic acid], the figure is below 0.1 µM.
As for `Cc1c(COC2CCN(C(=O)n3ccc(C(=O)O)n3)CC2)cccc1C(F)(F)F` [Example 235, 1-(4-((2-methyl-3-(trifluoromethyl)-benzyl)oxy)-piperidine-1-carbonyl)-1H-pyrazole-3-carboxylic acid], the IC50 is below 0.1 µM.
As for `C[C@@H]1CN(Cc2cccc(OCC(C)(C)O)c2Cl)CCN1C(=O)n1ccc(C(N)=O)n1` [Example 216, (R)-1-(4-(2-chloro-3-(2-hydroxy-2-methylpropoxy)-benzyl)-2-methylpiperazine-1-carbonyl)-1H-pyrazole-3-carboxamide], the figure is below 0.1 µM; as for `NC(=O)c1ccn(C(=O)N2CC3CN(Cc4ccc(C5(C(=O)O)CCOCC5)cc4C(F)(F)F)CC3C2)n1` (centres unmarked) [Example 35, 4-(4-((5-(3-carbamoyl-1H-pyrazole-1-carbonyl)hexahydropyrrolo[3,4-c]pyrrol-2(1H)-yl)methyl)-3-(trifluoromethyl)phenyl)tetrahydro-2H-pyran-4-carboxylic acid], below 0.1 µM.
As for `O=C(O)c1ccn(C(=O)N2CCC3(CCN(Cc4cc(Cl)ccc4OC(F)(F)F)C3)CC2)n1` [Example 371, 1-(2-(5-chloro-2-(trifluoromethoxy)-benzyl)-2,8-diazaspiro[4.5]-decane-8-carbonyl)-1H-pyrazole-3-carboxylic acid], the figure is below 0.1 µM.
For `CN(Cc1ccc(C(F)(F)F)cc1N1CCCCC1)C1(C)CCN(C(=O)n2ccc(C(=O)O)n2)CC1` [Example 397, 1-(4-methyl-4-(methyl(2-(piperidin-1-yl)-4-(trifluoromethyl)-benzyl)amino)-piperidine-1-carbonyl)-1H-pyrazole-3-carboxylic acid], the IC50 was below 0.1 µM.
For `O=C(O)c1ccn(C(=O)N2CCC3(CCN(Cc4cc(Cl)ccc4C(F)(F)F)CC3)CC2)n1` [Example 217, 1-(9-(5-chloro-2-(trifluoromethyl)-benzyl)-3,9-diazaspiro[5.5]-undecane-3-carbonyl)-1H-pyrazole-3-carboxylic acid] the value was below 0.1 µM; for `C[C@@H]1CN(Cc2ccc(-c3ccccc3)cc2F)CCN1C(=O)n1ccc(C(=O)O)n1` [Example 253, (R)-1-(4-((3-fluoro-[1,1′-biphenyl]-4-yl)methyl)-2-methylpiperazine-1-carbonyl)-1H-pyrazole-3-carboxylic acid], below 0.1 µM; for `O=C(O)c1nn(C(=O)N2CCC3(CC2)CN(Cc2cc(Cl)ccc2C(F)(F)F)C3)cc1Cl` [Example 134, 4-chloro-1-(2-(5-chloro-2-(trifluoromethyl)-benzyl)-2,7-diazaspiro[3.5]-nonane-7-carbonyl)-1H-pyrazole-3-carboxylic acid], below 0.1 µM.
